Experimental data published in publication PMC5414976, “Reduction of reactive red 241 by oxygen insensitive azoreductase purified from a novel strain Staphylococcus KU898286” (PLoS ONE, 2017).

Test system: T1, azoreductase
T1 construct: native enzyme purified from strain S1 cells (sonication, ammonium sulphate, Sephadex G-100); 29 kDa by SDS-PAGE
Experiment: dye decolourisation at […] nm, Lineweaver-Burk
Format: biochemical, Staphylococcus aureus

Structure (SMILES) | Km (0.5 mM RR241, NADH varied) | Km (constant NADH 1 mM (text; legend of Fig 4a says absence of NADH))
NC(=O)C1=CN([C@@H]2O[C@H](COP(=O)(O)OP(=O)(O)OC[C@H]3O[C@@H](n4cnc5c(N)ncnc54)[C@H](O)[C@@H]3O)[C@@H](O)[C@H]2O)C=CC1 [NADH] | 1020 µM | 
O=S(=O)(O)OCCS(=O)(=O)c1ccc(Nc2nc(Cl)nc(Nc3cc(S(=O)(=O)O)cc4cc(S(=O)(=O)O)c(N=Nc5ccc6c(S(=O)(=O)O)cccc6c5S(=O)(=O)O)c(O)c34)n2)cc1 [RR241, reactive red 241] |  | 1540 µM
